Source: patent US20150253330A1, “PRE-SELECTION OF SUBJECTS FOR THERAPEUTIC TREATMENT WITH AN HSP90 INHIBITOR BASED ON HYPOXIC STATUS” (Synta Pharmaceuticals Corp., priority 2012, published 2015)
Entries after “also recorded” stand apart in the source; their conditions may differ.

Tests used:
[1] = test system: BT-474 breast cancer cells grown as mammospheres; test: Viability of mammospheres in Matrigel, 72 hr, AlamarBlue; type: cell-based; settings: Homo sapiens, BT-474 mammospheres in Matrigel
Method: The cells were treated for 72 hr and analyzed by microscopy. IC50 was determined by AlamarBlue®.
BT-474 HER2+ luminal cells were cultured as mammospheres in Matrigel® and exposed to ganetespib for 72 hr.

[2] = test system: KRAS mutant NSCLC cell lines; test: Combinatorial viability analysis in KRAS mutant NSCLC cell lines; type: cell-based
Method: For combinatorial analysis, cells were seeded in 96-well plates at a predetermined, optimum growth density for 24 h prior to the addition of drug or vehicle to the culture medium. Drug combinations were applied at a non-constant ratio over a range of concentrations for 72 or 96 hours. […] Cell viability was assessed by either AlamarBlue® (Invitrogen, Carlsbad, Calif.) or CellTiter-Glo® assays and normalized to vehicle controls. For each combination study, the level of growth inhibition (fraction affected) is plotted relative to vehicle control. Data are presented as one relevant combination point and the corresponding single agent data for each cell line tested.

solid tumors = test: Phase 2 study in solid tumors, twice-weekly infusion (safety, PK, response); type: in vivo, human
Excerpt: (§1) Patients with solid tumors who had exhausted standard treatment options received ganetespib as a 1 hr infusion twice-weekly for 3 weeks (weeks) of a 28 day cycle until disease progression. Serial PK and pharmacodynamic samples were obtained during cycle 1. Safety assessments included frequency and grade of adverse events (AEs), laboratory parameters and ECG changes.

[3] = as above; type: in vivo, human; settings: human, plasma, intravenous; patients, 1 hr infusion; read-out: Mean terminal half-life
Excerpt: as §1

AGS = test: 72 hr viability by Syto60, gastric cell line; type: cell-based; settings: Homo sapiens, Syto60 (lower), read-out: ganetespib IC50
Method: (§2) Many of the oncoproteins associated with gastric cancer and Hsp90 client proteins including HER2, MET, RAS and the FGFR family. Ganetespib was evaluated for its effect on the growth of AGS (wt-p53 and mut-KRAS) and MKN45 (wt-p53, wt-KRAS, MET amplified) gastric cancer cells. Cells were treated for 72 hr and viability determined by CTG (upper) or Syto60 (lower).

MKN-45 = test: 72 hr viability by Syto60, gastric cell line; type: cell-based; settings: Homo sapiens, Syto60 (lower), read-out: ganetespib IC50
Method: as §2

Hsp90 client proteins = test: Western blot of Hsp90 client proteins in MKN45 cells; type: cell-based
A549 NSCLC cells = test: Mouse xenograft tumor model, ganetespib and BEZ235 (Example 9); type: in vivo, mice; settings: ganetespib 50 mg/kg weekly i.v.; BEZ235 10 mg/kg 5 times a week p.o.; particularly at later time points; FIG. 8
Excerpt: Female immunodeficient CD-1 (nude) mice (Charles River Laboratories, Wilmington, Mass.) were maintained in a pathogen-free environment, and all in vivo procedures were approved by the Synta Pharmaceuticals Corp. Institutional Animal Care and Use Committee. A549 NSCLC cells (7.5×10^6) were subcutaneously implanted into the animals. Mice bearing established tumors (100-200 mm^3) were randomized into treatment groups of 8 and i.v. dosed via the tail vein with either vehicle, ganetespib formulated in 10/18 DRD (10% DMSO, 18% Cremophor RH 40, 3.6% dextrose, 68.4% water) or p.o. dosed with BEZ235 formulated in PEG300/NMP (90% PEG300, 10% N-Methylpyrrolidone). Animals were treated with ganetespib at 50 mg/kg weekly or BEZ235 at 10 mg/kg 5 times a week, either alone or in combination. Tumor growth inhibition was determined as described previously. See Proia et al, PLoS One. 2011; 6(4):e18552.

locally advanced or MBC = test: Phase 2 trial in metastatic breast cancer (MBC); type: in vivo, human
Method: Patients with locally advanced or MBC were treated with single agent of ganetespib at 200 mg/m^2 on a cycle of once weekly for 3 weeks, one week off, on a 28 day cycle. The primary endpoint of the trial was overall response rate using RECIST 1.1. Patients with HER2+ breast cancer were required to have received prior therapy with trastuzumab. No more than 3 lines of chemotherapy in the metastatic setting were permitted, but there was no limit on prior lines of hormone therapy. Patients were evaluated for response after 2 cycles. The trial used a Simon two-stage design requiring at least 3 responses among the first 22 patients, to allow expansion to a total of 40 patients. A total of 22 patients were treated with a median age of 51 years (38 to 70) and the following subtypes: 13 HER2+ (10 ER+/HER2+; 3 ER−/HER2+), 6 ER+/HER2−, and 3 ER−/PR−/HER2− (TNBC).

SNU-1 = test: 72 hr viability by Syto60, gastric cell line; type: cell-based; settings: Homo sapiens, SNU1, Syto60 (lower), read-out: ganetespib IC50
GCIY = test: 72 hr viability by Syto60, gastric cell line; type: cell-based; settings: Homo sapiens, Syto60 (lower), read-out: ganetespib IC50
ECC12 = test: 72 hr viability by Syto60, gastric cell line; type: cell-based; settings: Homo sapiens, Syto60 (lower), read-out: ganetespib IC50

## CC(C)c1cc(-c2nnc(O)n2-c2ccc3c(ccn3C)c2)c(O)cc1O [ganetespib]
[1]
  IC50: 20 nM
[2]; ganetespib combined with alkylating agents
  Increase in cell death versus monotherapy: ≤ 61%
[2]; ganetespib combined with anti-mitotics
  Increase in cell death versus monotherapy: up to 44%
[2]; ganetespib combined with topoisomerase inhibitors
  Increase in cell death versus monotherapy: ≤ 26%
[2]; low dose of ganetespib combined with MEK inhibitors
  Greater activity than monotherapy: up to 77%
[2]; low dose of ganetespib combined with PI3K/mTOR inhibitors
  Greater activity than monotherapy: ≤ 42%
Solid tumors; 6 months of treatment
  NSCLC patients with durable SD, with tumor shrinkage: 2 patients
Solid tumors; in the 10 and 144 mg/m^2 cohorts
  DLTs (elevated transaminases): Two
Solid tumors; patients
  Volume of distribution: greater than total body water
Solid tumors; patients, doses from 2-144 mg/m^2
  PK linearity: linear PK
Solid tumors; patients, twice-weekly dosing
  Accumulation in plasma: no accumulation in plasma
Solid tumors; twice-weekly administration
  Tolerability: absence of severe liver, ocular, cardiac and renal toxicity; also recorded: well-tolerated
Solid tumors; twice-weekly dosing
  Response by RECIST in a patient with metastatic melanoma: confirmed durable PR
Solid tumors; twice-weekly, majority mild to moderate
  AEs reported in ≧20% of patients: fatigue, diarrhea, nausea, anemia, abdominal pain, constipation, anorexia, vomiting, and headache
[3]
  half-life: 10 to 14 h
AGS
  IC50: 5 nM
MKN-45
  IC50: 8 nM
Hsp90 client proteins
  Effect on Hsp90 client proteins by western blot: complete degradation of MET and IGF-IR
A549 NSCLC cells
  Average tumor volume as compared to vehicle: significantly reduced
Locally advanced or MBC; ER+/HER2− (N = 6)
  CBR (CR + PR + SD > 6 months): 0
  CR: 0
  ORR: 0
  PR: 0
Locally advanced or MBC; HER2+ (N = 13)
  CBR (CR + PR + SD > 6 months): 2 (9%)
  CR: 0
  ORR: 2 (9%)
  PR: 2
Locally advanced or MBC; TNBC (N = 3)
  CBR (CR + PR + SD > 6 months): 0
  CR: 0
  ORR: 0
  PR: 0
Locally advanced or MBC; Total (N = 22)
  CBR (CR + PR + SD > 6 months): 2 (9%)
  CR: 0
  PR: 2 (9%)
Locally advanced or MBC; Total (N = 22), 200 mg/m^2 once weekly for 3 weeks, one week off
  ORR: 2 (9%)
Locally advanced or MBC; single agent, expected GI toxicity mild in nature and manageable
  Tolerability: well tolerated
SNU-1
  IC50: 6 nM
GCIY
  IC50: 9 nM
ECC12
  IC50: 12 nM
